Source: PubChem BioAssay AID2060611 (Molecular Pharmacology Branch, DTP, NCI, 2025)
Where “and” joins values, the source holds several entries; their conditions need not be identical. Equal values may be shown once.

Test system: 628569-122-R-J1-PDC complex spheroid viability
Test: Anticancer human tumor 628569-122-R-J1-PDC patient-derived head and neck squamous carcinoma cell line growth inhibition [CLK]
Details: for viability, T/C: stronger effect = lower value
Method in brief: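 Patient-derived tumor cells grown as complex spheroids with HUVEC endothelial cells and mesenchymal stem cells, treated with drug combinations. Concentrations descend in half-log steps from near clinical Cmax, or from 10 microM if Cmax unknown.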

[1] = curve of first compound, second compound 0.0316 µM
[2] = curve of first compound, second compound 0.1 µM
[3] = curve of first compound, second compound 0.316 µM
[4] = curve of first compound, second compound 1 µM
[5] = curve of first compound, second compound 3.16 µM
[6] = curve of first compound, second compound 10 µM
[7] = second compound 0.0316 µM, first compound 0.0316 µM
[8] = second compound 0.0316 µM, first compound 0.1 µM
[9] = second compound 0.0316 µM, first compound 0.316 µM
[10] = second compound 0.0316 µM, first compound 1 µM
[11] = second compound 0.0316 µM, first compound 3.16 µM
[12] = second compound 0.0316 µM, first compound 10 µM
[13] = second compound 0.1 µM, first compound 0.0316 µM
[14] = second compound 0.1 µM, first compound 0.1 µM
[15] = second compound 0.1 µM, first compound 0.316 µM
[16] = second compound 0.1 µM, first compound 1 µM
[17] = second compound 0.1 µM, first compound 3.16 µM
[18] = second compound 0.1 µM, first compound 10 µM
[19] = second compound 0.316 µM, first compound 0.0316 µM
[20] = second compound 0.316 µM, first compound 0.1 µM
[21] = second compound 0.316 µM, first compound 0.316 µM
[22] = second compound 0.316 µM, first compound 1 µM
[23] = second compound 0.316 µM, first compound 3.16 µM
[24] = second compound 0.316 µM, first compound 10 µM
[25] = second compound 1 µM, first compound 0.0316 µM
[26] = second compound 1 µM, first compound 0.1 µM
[27] = second compound 1 µM, first compound 0.316 µM
[28] = second compound 1 µM, first compound 1 µM
[29] = second compound 1 µM, first compound 3.16 µM
[30] = second compound 1 µM, first compound 10 µM
[31] = second compound 3.16 µM, first compound 0.0316 µM
[32] = second compound 3.16 µM, first compound 0.1 µM
[33] = second compound 3.16 µM, first compound 0.316 µM
[34] = second compound 3.16 µM, first compound 1 µM
[35] = second compound 3.16 µM, first compound 3.16 µM
[36] = second compound 3.16 µM, first compound 10 µM
[37] = second compound 10 µM, first compound 0.0316 µM
[38] = second compound 10 µM, first compound 0.1 µM
[39] = second compound 10 µM, first compound 0.316 µM
[40] = second compound 10 µM, first compound 1 µM
[41] = second compound 10 µM, first compound 3.16 µM
[42] = second compound 10 µM, first compound 10 µM
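Further: spheroids exposed to agents for seven days before readout.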
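Wherever viability, T/C is given: 100% = DMSO vehicle control viability.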

Structure (SMILES): C=CC(=O)N1CCN(c2nc(=O)n(-c3c(C)ccnc3C(C)C)c3nc(-c4c(O)cccc4F)c(F)cc23)C(C)C1 (stereo not drawn) + CN1CCN(c2cc(C(=O)Nc3cc4cc(-c5cnn(C)c5)ccc4cn3)ccn2)CC1
- IC50 [1]: > 10 µM
- IC50 [2]: > 10 µM
- IC50 [3]: < 0.0316 µM
- IC50 [4]: < 0.0316 µM
- IC50 [5]: < 0.0316 µM
- IC50 [6]: < 0.0316 µM
- viability, T/C [7]: 104%
- viability, T/C [8]: 89.4%
- viability, T/C [9]: 110%
- viability, T/C [10]: 113%
- viability, T/C [11]: 132%
- viability, T/C [12]: 140%
- viability, T/C [13]: 51.7%
- viability, T/C [14]: 65.7%
- viability, T/C [15]: 77.1%
- viability, T/C [16]: 81.3%
- viability, T/C [17]: 86.2%
- viability, T/C [18]: 71.4%
- viability, T/C [19]: 32.5%
- viability, T/C [20]: 38.2%
- viability, T/C [21]: 41.5%
- viability, T/C [22]: 37.5%
- viability, T/C [23]: 51%
- viability, T/C [24]: 31.4%
- viability, T/C [25]: 6.64%
- viability, T/C [26]: 5.37%
- viability, T/C [27]: 5.91%
- viability, T/C [28]: 5.6%
- viability, T/C [29]: 8.96%
- viability, T/C [30]: 6.5%
- viability, T/C [31]: 9.3%
- viability, T/C [32]: 9.76%
- viability, T/C [33]: 6.13%
- viability, T/C [34]: 4.78%
- viability, T/C [35]: 5.85%
- viability, T/C [36]: 4.66%
- viability, T/C [37]: 2.59%
- viability, T/C [38]: 1.73%
- viability, T/C [39]: 2.2%
- viability, T/C [40]: 1.51%
- viability, T/C [41]: 4.91%
- viability, T/C [42]: 3.2%

Structure (SMILES): Cn1ncnc1[C@H]1c2n[nH]c(=O)c3cc(F)cc(c23)N[C@@H]1c1ccc(F)cc1
- viability, T/C (compound 0.000316 µM): 90.7% and 78.8%
- viability, T/C (compound 0.001 µM): 96.5% and 103%
- viability, T/C (compound 0.00316 µM): 97.3% and 61.4%
- viability, T/C (compound 0.01 µM): 89.6% and 93.2%
- viability, T/C (compound 0.0316 µM): 67.8% and 81.5%
- viability, T/C (compound 0.1 µM): 69.2% and 63.6%
- IC50 (curve of compound): > 0.1 µM

Structure (SMILES): COc1c(OCCCN2CCOCC2)ccc2c3n(c(=NC(=O)c4cnc(N)nc4)nc12)CCN3 + CN1CCN(c2cc(C(=O)Nc3cc4cc(-c5cnn(C)c5)ccc4cn3)ccn2)CC1
- IC50 [1]: 0.0211 µM
- IC50 [2]: 0.009 µM
- IC50 [3]: < 0.00316 µM
- IC50 [4]: < 0.00316 µM
- IC50 [5]: < 0.00316 µM
- IC50 [6]: < 0.00316 µM
- viability, T/C (second compound 0.0316 µM, first compound 0.00316 µM): 77%
- viability, T/C (second compound 0.0316 µM, first compound 0.01 µM): 67.5%
- viability, T/C [7]: 34.4%
- viability, T/C [8]: 34.8%
- viability, T/C [9]: 18.3%
- viability, T/C [10]: 7.77%
- viability, T/C (second compound 0.1 µM, first compound 0.00316 µM): 54.5%
- viability, T/C (second compound 0.1 µM, first compound 0.01 µM): 51.3%
- viability, T/C [13]: 34.6%
- viability, T/C [14]: 16.8%
- viability, T/C [15]: 13.2%
- viability, T/C [16]: 2.93%
- viability, T/C (second compound 0.316 µM, first compound 0.00316 µM): 35.2%
- viability, T/C (second compound 0.316 µM, first compound 0.01 µM): 21.1%
- viability, T/C [19]: 11.8%
- viability, T/C [20]: 9.4%
- viability, T/C [21]: 5.28%
- viability, T/C [22]: 1.37%
- viability, T/C (second compound 1 µM, first compound 0.00316 µM): 9.4%
- viability, T/C (second compound 1 µM, first compound 0.01 µM): 8.16%
- viability, T/C [25]: 8.92%
- viability, T/C [26]: 6.58%
- viability, T/C [27]: 5.37%
- viability, T/C [28]: 4.98%
- viability, T/C (second compound 3.16 µM, first compound 0.00316 µM): 5.32%
- viability, T/C (second compound 3.16 µM, first compound 0.01 µM): 5.77%
- viability, T/C [31]: 8.53%
- viability, T/C [32]: 6.16%
- viability, T/C [33]: 7.48%
- viability, T/C [34]: 4.29%
- viability, T/C (second compound 10 µM, first compound 0.00316 µM): 7.43%
- viability, T/C (second compound 10 µM, first compound 0.01 µM): 2.01%
- viability, T/C [37]: 3.89%
- viability, T/C [38]: 2.57%
- viability, T/C [39]: 3.58%
- viability, T/C [40]: 2.62%

Structure (SMILES): CCCS(=O)(=O)Nc1ccc(F)c(C(=O)c2c[nH]c3ncc(-c4ccc(Cl)cc4)cc23)c1F + CN1CCN(c2cc(C(=O)Nc3cc4cc(-c5cnn(C)c5)ccc4cn3)ccn2)CC1
- IC50 [1]: > 10 µM
- IC50 [2]: > 10 µM
- IC50 [3]: < 0.0316 µM
- IC50 [4]: < 0.0316 µM
- IC50 [5]: < 0.0316 µM
- IC50 [6]: < 0.0316 µM
- viability, T/C [7]: 121%
- viability, T/C [8]: 94.7%
- viability, T/C [9]: 87.2%
- viability, T/C [10]: 87.9%
- viability, T/C [11]: 91.7%
- viability, T/C [12]: 104%
- viability, T/C [13]: 70.8%
- viability, T/C [14]: 72.7%
- viability, T/C [15]: 68.9%
- viability, T/C [16]: 80.9%
- viability, T/C [17]: 86.6%
- viability, T/C [18]: 93.5%
- viability, T/C [19]: 37.9%
- viability, T/C [20]: 36.1%
- viability, T/C [21]: 37.9%
- viability, T/C [22]: 46.5%
- viability, T/C [23]: 46.4%
- viability, T/C [24]: 44.5%
- viability, T/C [25]: 5.76%
- viability, T/C [26]: 9.94%
- viability, T/C [27]: 5.5%
- viability, T/C [28]: 5.99%
- viability, T/C [29]: 5.05%
- viability, T/C [30]: 5.13%
- viability, T/C [31]: 5.86%
- viability, T/C [32]: 6.15%
- viability, T/C [33]: 6.62%
- viability, T/C [34]: 4.48%
- viability, T/C [35]: 5.63%
- viability, T/C [36]: 8.05%
- viability, T/C [37]: 5.01%
- viability, T/C [38]: 2.99%
- viability, T/C [39]: 2.11%
- viability, T/C [40]: 1.75%
- viability, T/C [41]: 1.53%
- viability, T/C [42]: 1.67%
